{
  "source": "patent US20110059114A1",
  "about": "“Compositions and Methods for the Treatment of Radioresistant Glioma Stem Cells” (DUKE UNIVERSITY, priority 2009, published 2011)",
  "key": {"γ-secretase": {"biological_target": "γ-secretase", "details": "as suggested by the manufacturer; cited from earlier work"}, "Akt": {"tested_on": "Akt", "assay": "Immunoblotting of phospho-Akt (S473)", "format": "cell-based, human", "details": "2 μM DAPT", "procedure": "FIG. 5 is a set of immunoblots and a graph illustrating that the Notch pathway regulates radioresistance of glioma stem cells via the Akt pathway and Mcl-1. T4302 CD 133+ cells were infected with control lentivirus or lentivirus directing expression of NICD2. Cells were pre-treated with or without 2 μM DPAT for 4 hours and exposed to 3-Gy radiation. Irradiated cells were collected at 24 or 48 hours after radiation, and sham-irradiated cells were collected at 48 hours after radiation. (A, C, D) Protein levels of phospho-Akt (S473), total Akt, PTEN, Bcl-2, Bcl-xL, Mcl-1, phospho-p53 (S15), total p53 and PUMA were assessed by immunoblotting. Actin was blotted as the loading control. (B) Control cells or NICD2-expressing cells were pre-treated with 10 μM PI3K inhibitor, LY294002, or 50 μM Akt inhibitor III (SH-6), for 4 hours prior to radiation exposure. Relative caspase 3/7 activities were determined at 48 hours after radiation exposure. #: p<0.001, by one-way ANOVA.\nFIG. 13 is an immunoblot illustrating that LY294002 or Akt inhibitor III reduce Akt activity in glioma stem cells. T4302 glioma stem cells were treated with 10 μM LY294002 or 50 μM Akt inhibitor III (SH-6) in the presence or absence of radiation. Cells were collected for immunoblotting at 48 hours after radiation as described in FIG. 5.\nAntibodies, DNA constructs, lentiviruses and other reagents. […]"}, "CD133+ glioma stem cells": {"tested_on": "CD133+ glioma stem cells", "assay": "Clonogenic survival assay (neurosphere formation)", "format": "cell-based, human", "details": "T4302, 3-Gy radiation", "from_the_text": "(§1) FIG. 1 is a series of graphs illustrating that γ-secretase inhibitors reduce cell growth and clonogenic survival of glioma stem cells following radiation. (A) T4302 CD133+ glioma stem cells were transfected with a Notch-responsive luciferase reporter (RBP-JK reporter) pre-mixed with the vector directing constitutive expression of Renilla luciferase. Cells were left unirradiated or irradiated at 3 Gy, and were then collected to measure luciferase activities at time points as indicated. […] The relative mRNA levels of Hes2 were determined by quantitative real-time PCR at the time points as indicated. […] Total viable cell numbers were then determined by the CellTiter-Glo Luminescent Cell Viability Assay (Promega) for the following five days. […] Cells were then plated to form neurospheres, and the surviving fractions were determined as described in methods. […] (F,G) Neurosphere formation of T3359 and T4105 CD 133+ cells treated with GSIs alone, 3-Gy radiation alone, or the combination was determined as described in FIG. 1E. *: p<0.05 by Student's t-test; #: p<0.001 by one-way ANOVA.\nTo measure clonogenic survival, CD133+ glioma cells were plated in 24-well plates at 50 cells per well for the sham-irradiated groups, 100 cells per well for cells irradiated at 1 Gy, or 500 cells per well for cells irradiated at 2 or 3 Gy. […] Fourteen days after plating, neurospheres containing more than 50 cells were scored. […]"}, "[1]": {"tested_on": "T4302 CD133+ glioma stem cells", "assay": "Growth curve, CellTiter-Glo Luminescent Cell Viability Assay", "format": "cell-based, human", "details": "without radiation treatment, day five; 2 μM DAPT or 0.5 μM L685,458", "from_the_text": "as §1\nGrowth Curve, caspase 3/7 assay, and clonogenic survival assay. […] Cell number was measured for 5 days using the CellTiter-Glo assay kit (Promega, Madison, […].). […]"}},
  "data": [
    {"smiles": "CC(NC(=O)Cc1cc(F)cc(F)c1)C(=O)NC(C(=O)OC(C)(C)C)c1ccccc1", "note": "[DAPT, N-[N-(3,5-Difluorophenacetyl-L-alanyl)]-S-phenylglycine t-Butyl Ester]", "values": [
      {"measurement": "IC50", "setting": "γ-secretase", "result": 0.2, "unit": "µM"},
      {"measurement": "Akt activation (phospho-S473 Akt)", "setting": "Akt; 3-Gy radiation, control cells", "result": "reduced Akt activation"},
      {"measurement": "Akt activities increased by NICD2 expression", "setting": "Akt; NICD2-expressing cells", "result": "partially attenuated but not abolished"},
      {"measurement": "clonogenic survival of irradiated NICD2-expressing cells", "setting": "CD133+ glioma stem cells", "result": "did not significantly alter"},
      {"measurement": "sham-treated cells more than GSI-treated cells (total cell number)", "setting": "[1]", "result": 25, "unit": "%"}
    ]}
  ]
}
